pIC50: −log10 of the molar value.
How the values were obtained:
[1] = target: T1, progesterone receptor (PR) (Homo sapiens, UniProt P06401); experiment: T47D cell alkaline phosphatase assay; assay type: cell-based; details: T47D cells; antagonist mode, in the presence of 1 nM progesterone; first TABLE 2; read-out: Alk. Phos. IC50
T1 construct: effect on alkaline phosphatase activity in T47D cells; endogenous in cells; host or cells: T47D cells
T1 sequence (P06401 1-933): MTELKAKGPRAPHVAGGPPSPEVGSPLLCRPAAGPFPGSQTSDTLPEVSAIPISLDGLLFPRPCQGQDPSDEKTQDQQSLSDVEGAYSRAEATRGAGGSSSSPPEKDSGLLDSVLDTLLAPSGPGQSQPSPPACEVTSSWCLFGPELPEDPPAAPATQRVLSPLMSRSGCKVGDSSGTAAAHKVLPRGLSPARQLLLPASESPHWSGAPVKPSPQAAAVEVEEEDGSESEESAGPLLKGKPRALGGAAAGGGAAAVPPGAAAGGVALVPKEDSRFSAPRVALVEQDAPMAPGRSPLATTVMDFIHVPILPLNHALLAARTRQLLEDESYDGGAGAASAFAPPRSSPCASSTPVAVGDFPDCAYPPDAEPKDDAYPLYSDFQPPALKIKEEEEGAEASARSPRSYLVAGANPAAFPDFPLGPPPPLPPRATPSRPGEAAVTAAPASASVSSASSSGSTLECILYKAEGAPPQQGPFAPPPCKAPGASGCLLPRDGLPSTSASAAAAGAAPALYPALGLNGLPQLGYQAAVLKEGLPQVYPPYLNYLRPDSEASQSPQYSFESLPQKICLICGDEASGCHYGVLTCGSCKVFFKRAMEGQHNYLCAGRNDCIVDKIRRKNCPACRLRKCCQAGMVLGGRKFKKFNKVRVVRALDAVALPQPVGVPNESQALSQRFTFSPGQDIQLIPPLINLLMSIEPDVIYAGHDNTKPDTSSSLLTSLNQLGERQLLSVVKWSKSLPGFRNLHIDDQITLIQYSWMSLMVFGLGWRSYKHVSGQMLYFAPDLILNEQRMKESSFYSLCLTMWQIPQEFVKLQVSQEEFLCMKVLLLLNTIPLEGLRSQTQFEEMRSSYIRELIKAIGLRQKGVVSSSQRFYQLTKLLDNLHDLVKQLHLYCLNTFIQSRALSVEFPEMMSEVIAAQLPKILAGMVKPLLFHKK
Experimental: (4) T47D Cell Alkaline Phosphatase Assay
To identify progestins or antiprogestins by determining a compound's effect on alkaline phosphatase activity in T47D cells.
DMEM:F12 (1:1) (GIBCO, BRL) supplemented with 5% (v/v) charcoal stripped fetal bovine serum (not heat-inactivated), 100 U/ml penicillin, […], and 2 mM GlutaMax (GIBCO, BRL).
I. 0.1 M Tris-HCl, pH 9.8, containing 0.2% Triton X-100
II. 0.1 M Tris-HCl, pH 9.8 containing 4 mM p-nitrophenyl phosphate (Sigma).
Frozen T47D cells were thawed in a 37° C. water bath and diluted to 280,000 cells/ml in culture medium. To each well in a 96-well plate (Falcon, Becton Dickinson Labware), 180 μl of diluted cell suspension was added. Twenty μl of reference or test compounds diluted in the culture medium was then added to each well. […] The cells were incubated at 37° C. in a 5% CO2/humidified atmosphere for 24 hr.
Note: For high throughput screening, one concentration of each compound was tested at 0.3 mg/ml. Based on an average molecular weight of 300 g/mol for the compounds in the library, the concentration was approximately 1 mM. […] Alkaline Phosphatase Enzyme Assay: […]
For reference and test compounds, a dose response curve was generated for dose (X-axis) vs. the rate of enzyme reaction (slope) (Y-axis). […] EC50 or IC50 values were calculated from the retransformed values. […]

## CC1(C)OCC(=O)Nc2ccc(-c3cc(F)cc(C#N)c3)cc21 [Compound 3, 3-(5,5-dimethyl-2-oxo-1,2,3,5-tetrahydro-4,1-benzoxazepin-7-yl)-5-fluorobenzonitrile]
other
  melting point: 238 to 239 °C

## Cn1c(C#N)ccc1-c1ccc2c(c1)C(C)(c1cccs1)OCC(=O)N2 (centres unmarked) [Compound 6, 1-Methyl-5-[5-methyl-2-oxo-5-(2-thienyl)-1,2,3,5-tetrahydro-4,1-benzoxazepin-7-yl]-1H-pyrrole-2-carbonitrile]
other
  melting point: 197 to 198 °C

## Cn1c(C#N)ccc1-c1ccc2c(c1)C(c1cccs1)(c1cccs1)OCC(=O)N2 [Compound 14, 1-Methyl-5-(2-oxo-5,5-dithien-2-yl-1,2,3,5-tetrahydro-4,1-benzoxazepin-7-yl)-1H-pyrrole-2-carbonitrile]
[1]
  pIC50: 7.95

## CCC1(c2cccs2)OCC(=O)Nc2ccc(-c3ccc(C#N)n3C)cc21 (centres unmarked) [Compound 19, 5-(5-Ethyl-2-oxo-5-thien-2-yl-1,2,3,5-tetrahydro-4,1-benzoxazepin-7-yl)-1-methyl-1H-pyrrole-2-carbonitrile]
[1]
  pIC50: 7.84

## CCC1(c2cccs2)OCC(=O)Nc2ccc(-c3ccc(F)c(C#N)c3)cc21 (centres unmarked) [Example 139, 5-(5-Ethyl-2-oxo-5-thien-2-yl-1,2,3,5-tetrahydro-4,1-benzoxazepin-7-yl)-2-fluorobenzonitrile]
other
  melting point: 197 to 199 °C

## CCC1(c2cccs2)OCC(=O)Nc2ccc(-c3sc(C#N)cc3C)cc21 (centres unmarked) [Example 140, 5-(5-Ethyl-2-oxo-5-thien-2-yl-1,2,3,5-tetrahydro-4,1-benzoxazepin-7-yl)-4-methylthiophene-2-carbonitrile]
other
  melting point: 182 to 184 °C

## CCC1(c2cccs2)OCC(=O)Nc2ccc(-c3coc(C#N)c3)cc21 (centres unmarked) [Example 141, 4-(5-Ethyl-2-oxo-5-thien-2-yl-1,2,3,5-tetrahydro-4,1-benzoxazepin-7-yl)-2-furonitrile]
other
  melting point: 99 to 100 °C

## CCC1(c2cccs2)OCC(=O)Nc2ccc(-c3csc(C#N)c3)cc21 (centres unmarked) [Example 143, 4-(5-Ethyl-2-oxo-5-thien-2-yl-1,2,3,5-tetrahydro-4,1-benzoxazepin-7-yl)thiophene-2-carbonitrile]
other
  melting point: 202 to 204 °C
